Data from publication PMC2994807 (Biochemistry, 2010).

How the values were obtained:
[1] = target: dialkylglycine decarboxylase (DGD); WT DGD (Burkholderia cepacia, UniProt P16932, M141R/W138F); test: biochemical
[2] = target: dialkylglycine decarboxylase (DGD); WT DGD (Burkholderia cepacia, UniProt P16932, W138F); test: biochemical

| Structure (SMILES) | Ki [1] | Ki [2] |
| --- | --- | --- |
| N[C@H](CCC(=O)O)C(=O)O [D-glutamate] | 89 mM | – |
| N[C@@H](C(=O)O)c1ccccc1 [D-phenylglycine] | – | 50 mM |
